For orientation: logP means the decadic logarithm of the partition coefficient of the neutral form, usually between octanol and water.

In the case of `COc1nnc(OC)c2ccccc12`, the logP is 2.22.
Compound `Oc1ccc(C2CCCCC2)cc1` registered a logP of 4.22.
Compound `c1nc[nH]n1` gave a logP of -0.58.
On to `Cc1ccc(C)c(O)c1`, for which the log partition coefficient (logP) is 2.33.
`CC(=O)Nc1cccs1` displayed a logP of 1.1.
The compound `CCCCC(=O)OCC(=O)[C@@]1(OC(=O)CCCC)[C@@H](C)C[C@H]2[C@@H]3CCC4=CC(=O)C=C[C@]4(C)[C@@]3(F)[C@@H](O)C[C@@]21C` displayed a logP of 5.26.
In the case of `NC(=O)c1ccco1` it was -0.11; in that of `COC(=O)C(C)(C)C`, 1.83.
`Clc1ccc2cc[nH]c2c1` yielded a log partition coefficient (logP) of 3.25.
For `N#Cc1ccc(C(=O)O)cc1`, the logP turned out to be 1.56.
`Nc1cc([N+](=O)[O-])ccc1C(=O)O` came in with a logP of 1.91.
As to `O=[N+]([O-])c1nccn1CC(O)CF` (configuration not stated), the log partition coefficient (logP) was -0.52.
Compound `ON=C1C=CC(=NO)C=C1` returned a logP of 1.49.
Compound `CN(C)c1ccc2c(c1)C(=O)N(S(C)(=O)=O)C2=O` displayed a logP of 1.65.
For the compound `O=C1CCC(=O)N1c1ccc(Br)cc1`, the logP stood at 1.18.
`CCOP(=O)(N=C1SCC(C)S1)OCC` (configuration not stated) came in with a log partition coefficient (logP) of 1.04.
Compound `Clc1ccc(Cl)c(Cl)c1` showed a logP of 4.02.
`CN(C)C(N(C)C)=S(I)c1ccc(Cl)cc1[N+](=O)[O-]` (configuration not stated) registered a logP of -0.09.
Regarding `COC(=O)c1cccc(N=NN(C)C)c1`, the logP amounted to 3.12.
The compound `CCCCCF` registered a logP of 2.33.
With `N#Cc1ccc(S(N)(=O)=O)cc1`, the lipophilicity (logP) worked out at 0.23.
`CC(=O)OC[C@H]1O[C@H](OC(C)=O)[C@H](OC(C)=O)[C@@H](OC(C)=O)[C@@H]1OC(C)=O` showed a logP of 0.63.
The compound `O=C1CCC(=O)N1c1ccc([N+](=O)[O-])cc1` came in with a logP of 0.46.
Turning to `O=[N+]([O-])c1ccc(OCC(O)CNCC(O)COc2ccccc2)cc1` (configuration not stated), the logP turned out to be 2.62.
In turn, `Cc1cccc(N2C(=O)CCC2=O)c1` showed a lipophilicity (logP) of 0.57.
In the case of `COP(=S)(OC)Oc1ccc(Sc2ccc(OP(=S)(OC)OC)cc2)cc1` it was 5.96; in that of `CC(C)Br`, 2.14.
On to `O=Ic1ccccc1`, for which the logP was -1.61.
For `O=C(O)C1c2ccccc2Sc2ccccc21`, the logP amounted to 2.57.
In turn, `Cc1[nH]cnc1CSCCNc1cc[nH]c(=O)n1` yielded a logP of -0.4.
In turn, `CC(C)(O)C(Cl)(Cl)Cl` displayed a logP of 2.03.
Take `CC(C)CC#N`: the logP came out at 1.07.
`CCCOC=O` came in with a logP of 0.83.
For the compound `N#Cc1cccc2cccnc12`, the logP was determined as 1.39.
In the case of `CN1CCN(CCCN2c3ccccc3Sc3ccc(Cl)cc32)CC1`, the logP was determined as 4.88.
`COC(=O)C=Cc1ccccc1` displayed a log partition coefficient (logP) of 2.62.
In turn, `c1ccc2nc3ccccc3cc2c1` had a logP of 3.4.
Under `O=C(CI)NC(CO)C(O)c1ccc([N+](=O)[O-])cc1` (configuration not stated) stands 1.03; under `CCCCCCC1CCC(=O)O1` (configuration not stated), 2.72.
On to `CCOCCO`, for which the logP is -0.32.
Regarding `NC(=O)CCCCOC(=O)c1ccccc1`, the logP was determined as 1.39.
In turn, `Cc1ccc(S(N)(=O)=O)cc1` came in with a logP of 0.82.
`CN(C)C1=CC(=O)c2ccccc2C1=O` yielded a logP of 1.9.
Take `CCCC[n+]1ccccc1.[Br-]`: the logP is -2.69.
Regarding `CCCCCn1cnc2c(N)ncnc21`, the log partition coefficient (logP) is 1.79.
The compound `O=c1cc[nH]c2cc(C(F)(F)F)ccc12` had a logP of 2.05.
Under `O=[N+]([O-])c1ccccc1` stands 1.85; under `CCC(=O)OC1(C(=O)CCl)C(C)CC2C3CCC4=CC(=O)C=CC4(C)C3C(=O)CC21C` (configuration not stated), 3.3; under `O=C(OCCCc1cnc[nH]1)c1ccccc1`, 2.64.
In the case of `CC(=O)c1ccccc1O` it was 1.92; in that of `CCOc1c(OC)cc(CCN)cc1OC`, 1.11.
Consider `ClC(Cl)C(Cl)(Cl)Cl`, for which the logP was 3.22.
As to `O=C(Cn1cnc([N+](=O)[O-])n1)NCCO`, the logP was -1.59.
`Sc1ccccc1` came in with a logP of 2.52.
`O=C(Nc1ccccc1)Oc1ccccc1`: the logP turned out to be 3.3.
Under `CC(C)C(O)C(C(=O)O)c1ccc(-c2ccccc2)cc1` (configuration not stated) stands 3.84; under `CNCCO`, -0.94; under `c1ccc2ncccc2c1`, 2.03.
On to `O=C(Nc1cccc2cccnc12)C(F)(F)F`, for which the logP was determined as 3.24.
`CCC(=O)OC1(C(C)=O)C(C)CC2C3CCC4=CC(=O)C=CC4(C)C3(F)C(O)CC21C` (configuration not stated) returned a log partition coefficient (logP) of 3.09.
`Cc1cc(C)nc(C)c1`: the logP was 1.88.
Compound `O=S1OCC2C(CO1)C1(Cl)C(Cl)=C(Cl)C2(Cl)C1(Cl)Cl` (configuration not stated) came in with a logP of 3.83.
`C=CC=C`: the lipophilicity (logP) amounted to 1.99.
Consider `O=[N+]([O-])c1ncc[nH]1`, for which the logP worked out at 0.15.
In the case of `O=C(O)CCCCCCc1ccccc1`, the logP was found to be 3.63.
In the case of `CCCCOC(=O)c1ccc(S(N)(=O)=O)cc1`, the logP came to 2.34.
Under `ONc1ccccc1` stands 0.79; under `O=c1cc(-c2ccccc2)o[nH]1`, 2.55.
On to `Nc1ccc(C(=O)Oc2ccc(Br)cc2)c(O)c1`, for which the logP came to 3.46.
For the compound `O=C1CCC(=O)N1c1ccccc1[N+](=O)[O-]`, the logP was 0.36.
`Cc1cc2occ(C)c2c2oc(=O)ccc12` gave a log partition coefficient (logP) of 3.02.
Compound `COc1ccccc1C(=O)c1ccncc1` yielded a logP of 1.86.
Under `O=C(O)c1c2ccccc2cc2ccccc12` stands 3.85; under `O=C1OCc2c(Cl)c(Cl)c(Cl)c(Cl)c21`, 3.2.
In turn, `CNC(C)=O` returned a lipophilicity (logP) of -1.05.
Take `Nc1nc(N)nc(-c2ccccc2)n1`: the logP was found to be 1.36.
In the case of `CCOC(=O)C(C(=O)OCC)=C(C(=O)OCC)C(=O)OCC` it was 2.63.
As to `CN1CCN(C)CC1`, the logP is -0.4.
For `COC(=O)C1=CCCN(C)C1`, the logP came to 0.35.
In the case of `NC(=O)Nc1ccc(Cl)cc1` it was 1.8.
Take `Brc1ccsc1Br`: the logP was 3.53.
In turn, `O=C1c2ccccc2-c2ccccc21` gave a log partition coefficient (logP) of 3.58.
`O=[N+]([O-])c1ccnc2ccccc12` came in with a logP of 2.06.
For the compound `CC(=O)c1cccs1`, the logP was 1.25.
In the case of `C[C@H]1C[C@H]2[C@@H]3CCC4=CC(=O)C=C[C@]4(C)[C@@]3(F)[C@@H](O)C[C@]2(C)[C@@]1(O)C(=O)CCl`, the logP was 2.48.
For `OCCN1CCN(CCC=C2c3ccccc3Sc3ccc(Cl)cc32)CC1`, the logP was found to be 4.18.
Consider `ClC(Cl)=Nc1ccccc1`, for which the logP amounted to 2.54.
In the case of `CCOC(=O)C(O)c1ccccc1` (configuration not stated), the logP was 1.53.
Take `CC(=O)c1ccc(C)cc1`: the logP was 2.1.
Under `CNP(=O)(OC)Oc1ccc(OC)cc1` (configuration not stated) stands 1.06; under `CCCCCCCBr`, 4.36.
In the case of `C=C(C)C(=O)OCCCC` it was 2.88; in that of `O=S1(=O)N=CNc2ccccc21`, 0.16.
In the case of `C#Cc1ccccc1` it was 2.53; in that of `CCOP(=O)(NC(C)C)Oc1ccc(SC)c(C)c1` (configuration not stated), 3.23.
For the compound `CCN(CC)C(=O)c1cccnc1`, the logP was found to be 0.33.
As to `CC(=O)c1ccccc1Cl`, the logP was found to be 2.09.
In the case of `Cc1cc(N)nc(C)n1` it was 0.39; in that of `CC1CC2C3CCC4=CC(=O)C=CC4(C)C3(F)C(=O)CC2(C)C1(O)C(=O)CCl` (configuration not stated), 2.61.
In turn, `CCCCC[C@H](O)/C=C/[C@H]1[C@H](O)CC(=O)[C@@H]1C/C=C\CCCC(=O)O` displayed a logP of 2.82.
Regarding `CCCN(CCC)c1c([N+](=O)[O-])cc(C(F)(F)F)cc1[N+](=O)[O-]`, the logP came out at 5.34.
As for `CCN(CC)C(=O)SCc1ccc(Cl)cc1`, the logP worked out at 3.4.
Under `O=C(O)COc1ccccc1` stands 1.34; under `O=C(Oc1ccccc1)n1cc(F)c(=O)[nH]c1=O`, 0.64; under `NC(=O)Nc1cccc2cccnc12`, 1.62.
Turning to `COCC1COC(Cn2cncn2)(c2ccc(Cl)cc2Cl)O1` (configuration not stated), the logP stood at 2.21.
Compound `Nc1ccccc1Oc1ccccc1` came in with a logP of 2.46.
The compound `CNC(=O)Oc1ccccc1C1OCCO1` yielded a logP of 0.67.
Regarding `NNC(=O)c1ccccc1O`, the lipophilicity (logP) stood at 0.6.
Regarding `Cc1ccc(Cl)cc1C`, the logP stood at 3.82.
Regarding `N#Cc1ccncc1C#N`, the logP worked out at 0.24.
Under `CCOC(=O)c1ccco1` stands 1.52.
Take `COC(=O)c1cccc(N2C(=O)CCC2=O)c1`: the log partition coefficient (logP) is 0.36.
The compound `CCC(=O)Nc1ccc(Cl)c(Cl)c1` gave a log partition coefficient (logP) of 3.07.
`COc1cccc(C(=O)O)c1O` had a logP of 1.94.
With `O=S(=O)(c1ccccc1)c1cccc2cccnc12`, the log partition coefficient (logP) is 2.33.
As for `COC(=O)c1ccc(OC)cc1`, the logP was determined as 2.27.
For the compound `COc1ccc(C=CNC=O)cc1`, the lipophilicity (logP) stood at 1.94.
As to `O=C(O)COc1ccc(Cl)c(I)c1`, the logP was found to be 3.1.
Under `CC(=O)OC1(C(=O)CO)CCC2C3CCC4=CC(=O)CCC4(C)C3C(=O)CC21C` (configuration not stated) stands 2.45; under `O=C(O)COc1ccccc1I`, 2.33.
For the compound `C=C(C)c1ccccc1`, the logP is 3.48.
Under `CC(C)N(C(=O)CCl)c1ccccc1` stands 2.18; under `CNc1ncnc2c1ncn2C1CC(O)C(CO)O1` (configuration not stated), -0.19; under `COc1cc(C(=O)NN)ccn1`, -0.1.
`Cc1nnc2n1-c1sc(Br)cc1C(c1ccccc1Cl)=NC2` had a logP of 2.79.
`COCC(F)Cn1ccnc1[N+](=O)[O-]` (configuration not stated) returned a log partition coefficient (logP) of 0.18.
Take `ClC(Cl)(Cl)c1ccc(C(Cl)(Cl)Cl)cc1`: the logP amounted to 4.62.
On to `CCN(N=O)C(N)=O`, for which the logP was found to be 0.23.
For `CCCCOC(=O)N(C)SN(C)C(=O)Oc1cccc2c1OC(C)(C)C2`, the logP was found to be 4.7.
The compound `CN(C)CC(CN1c2ccccc2Sc2ccccc21)N(C)C` (configuration not stated) showed a logP of 4.76.
Regarding `COP(=S)(OC)Oc1nc(Cl)c(Cl)cc1Cl`, the log partition coefficient (logP) is 4.31.
Turning to `CON(C)C(=O)Nc1cccc(O)c1`, the logP was 0.83.
Take `O=C(O)c1cc(I)cc(I)c1O`: the logP is 4.56.
Compound `c1ccc2c(c1)cnn2C12CC3CC(CC(C3)C1)C2` showed a logP of 4.33.
The compound `CSc1ccccc1N` registered a logP of 1.2.
In the case of `CCCCNC(=O)c1cccnc1` it was 0.9.

The values are drawn from the OPERA property sets (Mansouri et al. 2018).
